Results from patent US20210024483A1, “HETEROCYLCOALKENYL DERIVATIVES USEFUL AS AGONISTS OF THE GPR120 AND / OR GPR40” (Janssen Pharmaceutica NV, priority 2018, published 2021).

How the values were obtained:
[1] = test system: DIO mice (C57Bl6 on high fat diet); assay: GPR120 DIO Mice OGTT Screening; assay type: in vivo, mouse; details: 3 mg/kg, glucose AUC −30 to 90 min, change from vehicle
Method: GPR120 DIO Mice OGTT Screening
18-22 week old, C57Bl6 mice on a high fat diet (60% HFD) for 12-16 weeks (average body weight ˜37-41 g) were fasted for 6 hr, with removal of food occurring at 7 am on the morning of the study. The animals were sorted into treatment groups the day before the study by body weight. Animals outside the bounds of ˜30-50 g were left out of the study. The animals had been handled and shammed a total of 5-8 days (1-3 days immediately prior to the study). Glucose (in 1 mL syringes) was drawn up the morning of the study. Test compounds were kept spinning and were only drawn into 1 ml syringes prior to study commencement. […]
Animals were moved into the testing room at ˜9-11 am, to yield them time to acclimate. […] All groups were dosed 30 minutes prior to glucose administration at a dose volume of 10 ml/kg (the dose volume was calculated separately for each individual animal). […]
Thirty minutes after the first dose (with test compound) animals were bled again for a second baseline, or T=0, and immediately dosed with glucose (20% solution; TEKNOVA, 250 ml sterile bottle w/catalogue number G0525) via a PO injection. The exact dose volume for glucose was also calculated separately for each individual animal.
Blood glucose was measured at 15, 30, 45, 60, and 90 minutes post-glucose administration via the snipped tail. […]

GPR40 = GPR40 (UniProt O14842); assay: GPR40 Calcium Flux Assay; assay type: cell-based; details: transfected HEK293 cells stably expressing human or rat GPR40; species not given
Method: Biological Example 3: In Vitro Assay
Compounds were tested in a calcium flux assay using transfected HEK293 cells stably expressing either human GPR40 or rat GPR40. Human GPR40 expressing cells were cultured in DMEM-High Glucose media supplemented with 10% fetal bovine serum, 1×L-Glutamine, 1× Penicillin/Streptomycin and 500 μg/mL G418. Rat GPR40 expressing cells were cultured in DMEM-High Glucose media supplemented with 10% fetal bovine serum and 1 μg/mL puromycin. Cells were plated into poly-D-lysine coated 384-well plates and cultured overnight in a 37° C. humidified tissue culture incubator under 5% CO2/90% O2 atmosphere.
On the day of the experiment, the culture media was replaced with assay buffer (HBSS, 20 mM HEPES, 0.1% BSA) and the cells incubated at 37° C. for 1 h. Calcium-sensitive fluorescent dye (Fluo 8 No-Wash Calcium Dye, ABD Bioquest) was then added and the cells incubated for another 30 min at 37° C. followed by 15 min at room temperature while protected from the light. The cell plate and a plate of diluted compounds of Formula (I) were loaded into a fluorescent plate reader that added compounds onto the cells while measuring the fluorescence intensity of each well. The plate reader recorded fluorescence intensity at 1 second intervals for 8 min and provided the data for analysis in an Excel format. EC50 values were calculated using Prism (GraphPad) software.

For `Cc1c(CCC(=O)O)ccc(OCC2=C(c3ccc(Cl)cc3)COCC2)c1C` [ID No. 745, 3-[4-[[5-(4-chlorophenyl)-3,6-dihydro-2H-pyran-4-yl]methoxy]-2,3-dimethyl-phenyl]propanoic acid], the “DIO lowering (−30 to 90)” value [1] was −63% and the EC50 (GPR40) was over 10 µM.
